Assay results published in the Deep4Chem optical property database.
Values joined by “and” are separate entries in the source; they are usually repeats but may differ in a detail not shown here. Equal entries are not always repeated. Blank lines part the entries; values can stand above or below the compound they belong to.

Assay: solvent given as SMILES

fluorescence lifetime (in C1CCOC1): 6.1 ns
SMILES: CC(C)(C)NC1=CC2=c3cc(NC(C)(C)C)c4nc(C(F)(F)C(F)(F)C(F)(F)F)nc5c(NC(C)(C)C)cc(c3c54)C3=CC(NC(C)(C)C)=C4N=C(C(F)(F)C(F)(F)C(F)(F)F)N=C1C4C32 (stereo not given)

fluorescence lifetime (in CCO): 1.3 ns
fluorescence lifetime (in ClCCl): 1.6 ns
SMILES: N#Cc1cnc(-c2c3ccccc3cc3ccccc23)nc1

fluorescence lifetime (in C1CCCCC1): 10.4 ns
fluorescence lifetime (in CCCCCO): 16 ns
fluorescence lifetime (in CCCCO): 12.6 ns
fluorescence lifetime (in CCCO): 11.9 ns
fluorescence lifetime (in CCO): 11.7 ns
fluorescence lifetime (in CO): 11.2 ns
SMILES: ClC(Cl)=C1c2ccccc2C(C2(Cl)c3ccccc3C(=C(Cl)Cl)c3ccccc32)c2ccccc21 (stereo not given)

fluorescence lifetime (in ClCCl): 4.5 ns
SMILES: CCCCCCCCCCCCOc1cc2cc(N(C)C)ccc2cc1C=O

fluorescence lifetime (in C1CCOC1): 7.83 ns
fluorescence lifetime (in CO): 13.8 ns
SMILES: CCOC(=O)C1=CNC=C(C(=O)OCC)C1c1ccccc1

SMILES: CC1(C)C(/C=C/C2=C(c3ccc(C(=O)O)cc3)C(=C/C=C3/N(CCCCS(=O)(=O)[O-])c4ccc5ccccc5c4C3(C)C)/CCC2)=[N+](CCCCS(=O)(=O)[O-])c2ccc3ccccc3c21
fluorescence lifetime (in CC(C)=O): 0.84 ns
fluorescence lifetime (in CCO): 0.69 ns
fluorescence lifetime (in CO): 0.61 ns
fluorescence lifetime (in CS(C)=O): 0.98 ns
fluorescence lifetime (in ClC(Cl)Cl): 1.62 ns
fluorescence lifetime (in ClCCl): 1.34 ns
fluorescence lifetime (in O): 0.2 ns

fluorescence lifetime (in ClCCl): 7.4 ns
SMILES: CC(C)(C)c1ccc(-c2nc3c4ccc(-c5cccc6ccccc56)cc4c4cc(-c5cccc6ccccc56)ccc4c3n2-c2ccc(C(C)(C)C)cc2)cc1

SMILES: CN(C)c1ccc(C2=Nc3sc4cc(F)ccc4[n+]3[B-](F)(F)O2)cc1
fluorescence lifetime (in Cc1ccccc1): 1.68 ns

SMILES: CCCCC(CC)CN1C(=O)c2cc(Oc3ccc(C(C)(C)C)cc3)c3c4c(Oc5ccc(OC)cc5)cc5c6c(cc(Oc7ccc(OC)cc7)c(c7c(Oc8ccc(C(C)(C)C)cc8)cc(c2c37)C1=O)c64)C(=O)N(c1c(C(C)C)cccc1C(C)C)C5=O (stereo not given)
fluorescence lifetime (in Cc1ccccc1): 5.25 ns

fluorescence lifetime (in CCC(C)C): 0.38 ns
SMILES: CCCCCCCCCCc1cc(-c2cc(CCCCCCCCCC)c(-c3cccs3)s2)sc1-c1cccs1

SMILES: Cc1cc(C(F)(F)F)nc2c1ccc1nc(-c3ccc(F)c(F)c3)cn12
fluorescence lifetime (in CC#N): 8.58 ns
fluorescence lifetime (in CCCCOC(C)=O): 7.28 ns
fluorescence lifetime (in CCOC(C)=O): 7.26 ns
fluorescence lifetime (in CO): 8.3 ns
fluorescence lifetime (in c1ccccc1): 6.69 ns

fluorescence lifetime (in O): 3.66 ns
SMILES: CN(C)c1ccc2c(c1)C(C)(C)C(=O)C=C2

fluorescence lifetime (in ClCCl): 6.1 ns
SMILES: F[B-]1(F)n2c(c3c(c2-c2ccccc2)C2C=CC3CC2)C(c2ccccc2)=C2C3=C(C(c4ccccc4)=[N+]21)C1C=CC3CC1 (stereo not given)

fluorescence lifetime (in ClCCl): 63.4 ns
fluorescence lifetime (in OCC(F)(F)F): 8.5 ns
SMILES: C=CCOc1nnc(OCCC(F)(F)C(F)(F)C(F)(F)C(F)(F)C(F)(F)C(F)(F)C(F)(F)C(F)(F)F)nn1

fluorescence lifetime (in ClCCl): 0.27 ns
SMILES: O=[N+]([O-])c1ccc(C#Cc2ccc3ccc(C#Cc4ccc([N+](=O)[O-])cc4)cc3c2)cc1

SMILES: O=[N+]([O-])c1ccc(/C2=C3N=C(C(c4ccccc4)=C/3c3ccccc3)/C(c3ccc([N+](=O)[O-])cc3)=c3\[nH]/c(c(-c4ccccc4)c3-c3ccccc3)=C(/c3ccc([N+](=O)[O-])cc3)C3=N/C(=C(/c4ccc([N+](=O)[O-])cc4)c4[nH]c2c(-c2ccccc2)c4-c2ccccc2)C(c2ccccc2)=C3c2ccccc2)cc1
fluorescence lifetime (in ClCCl): 0.395 ns

SMILES: CCC1(CC)c2cc(B(c3c(C)cc(C)cc3C)c3c(C)cc(C)cc3C)ccc2-c2ccc(N(c3ccccc3)c3ccccc3)cc21
fluorescence lifetime (in C1CCOC1): 2.5 ns
fluorescence lifetime (in CC#N): 3.5 ns
fluorescence lifetime (in CC(C)=O): 2.9 ns
fluorescence lifetime (in CCCCCC): 1.6 ns
fluorescence lifetime (in CN(C)C=O): 3.5 ns
fluorescence lifetime (in Cc1ccccc1): 1.8 ns
fluorescence lifetime (in ClC(Cl)Cl): 2.2 ns

fluorescence lifetime (in ClCCl): 1.23 ns
SMILES: CCCCCCCCOc1cc(/C=C/c2cc[n+](Cc3ccc(C)cc3)cc2)c(OCCCCCCCC)cc1/C=C/c1cc[n+](Cc2ccc(C)cc2)cc1

fluorescence lifetime (in CCCCCC): 14.6 ns
SMILES: Cc1cc(C)c(B(c2cc3c4c(c(B(c5c(C)cc(C)cc5C)c5c(C)cc(C)cc5C)cc5c4c2CCC5)CCC3)c2c(C)cc(C)cc2C)c(C)c1

fluorescence lifetime (in CC#N): 0.6 ns
fluorescence lifetime (in ClCCCl): 0.49 ns
SMILES: Cc1ccc2nc3[nH]c(=O)[nH]c(=O)c3nc2c1

fluorescence lifetime (in ClCCl): 2.21 ns
SMILES: CCN(CC)c1ccc2c(-c3ccccc3C(=O)O)c3c([o+]c2c1)/C(=C/c1nc(C)n2ccccc12)CCC3

fluorescence lifetime (in ClC(Cl)Cl): 3.4 ns
SMILES: CCCCCCCCn1c(=O)c2cc3c(C#Cc4ccc(N(c5ccccc5)c5ccccc5)cc4)c4cc5c(=O)n(CCCCCCCC)c(=O)c5cc4c(C#Cc4ccc(N(c5ccccc5)c5ccccc5)cc4)c3cc2c1=O

SMILES: CCCCOc1ccc(/C=C/C=C/C=C/c2ccc([N+](=O)[O-])cc2)cc1
fluorescence lifetime (in Cc1ccccc1): 1.7 ns

fluorescence lifetime (in CC#N): 4.03 ns
fluorescence lifetime (in CCO): 4 ns
fluorescence lifetime (in CN(C)C=O): 3.68 ns
fluorescence lifetime (in O): 4.28 ns
SMILES: Nc1ccc2c(-c3ccccc3C(=O)[O-])c3ccc(=[NH2+])cc-3oc2c1

fluorescence lifetime (in ClCCl): 2.25 ns
SMILES: COC(=O)c1cc(=O)n(C)c2cc(-c3cc4c5c(c3)CCCN5CCC4)sc12

fluorescence lifetime (in CO): 0.26 ns
fluorescence lifetime (in ClC(Cl)Cl): 1.65 ns
SMILES: CC[n+]1c(C=C2C(=O)C(C=C3N(C)c4ccc(Cl)cc4C3(C)C)=C2[O-])sc2ccccc21

fluorescence lifetime (in ClC(Cl)Cl): 8.9 ns
SMILES: CCN(CC)c1ccc2cc(-c3ccc(-c4c5ccccc5c(-c5ccc(-c6cc7ccc(N(CC)CC)cc7oc6=O)cc5)c5ccccc45)cc3)c(=O)oc2c1

fluorescence lifetime (in CCCCCC): 21.1 ns
SMILES: CCc1c(C(=O)OC)c(C(=O)OC)c2ccc(-c3ccccc3)nn12

fluorescence lifetime (in ClC(Cl)Cl): 7.5 ns
SMILES: COc1cc(OC)c2c(c1)c1cc3oc(=O)cc(C)c3cc1c1cc(OC)cc(OC)c12

fluorescence lifetime (in C1CCOC1): 4.4 ns
SMILES: CCC1(CC)c2cc(B(c3c(C)cc(C)cc3C)c3c(C)cc(C)cc3C)ccc2-c2c1c1c(c3c2C(CC)(CC)c2cc(B(c4c(C)cc(C)cc4C)c4c(C)cc(C)cc4C)ccc2-3)C(CC)(CC)c2cc(B(c3c(C)cc(C)cc3C)c3c(C)cc(C)cc3C)ccc2-1

fluorescence lifetime (in ClCCl): 4.9 ns
SMILES: COc1ccc(Oc2ccc3c4c(cccc24)C(=O)N(c2c(C(C)C)cccc2C(C)C)C3=O)cc1

fluorescence lifetime (in CCC(C)C): 0.43 ns
SMILES: Cc1ccsc1-c1ccc(-c2ccc(-c3sccc3C)s2)s1

fluorescence lifetime (in c1cc(-n2c3ccccc3c3ccccc32)cc(-n2c3ccccc3c3ccccc32)c1): 9.7 ns
SMILES: CC(C)(C)c1ccc2c(c1)c1cc(C(C)(C)C)ccc1n2-c1ccccc1-c1nccnc1C#N

fluorescence lifetime (in ClCCl): 3 ns
SMILES: O=P1(c2ccccc2)C(c2ccc(C(F)(F)F)cc2)=Cc2cc3ccccc3cc21 (stereo not given)

fluorescence lifetime (in CC#N): 2.1 ns
SMILES: COc1cc(C#Cc2ccccc2)c(C#Cc2ccccc2)cc1OC

fluorescence lifetime (in c1ccccc1): 2.2 ns and 2.6 ns
SMILES: O=c1oc2ccc3ccccc3c2nc1-c1ccccc1

fluorescence lifetime (in ClCCl): 16.8 ns
SMILES: c1ccc2c(c1)Nc1ccccc1B2c1c2ccccc2cc2ccccc12

fluorescence lifetime (in CC#N): 2.43 ns
fluorescence lifetime (in CCCCCCCCCCCCCCCC): 4.97 ns
fluorescence lifetime (in CO): 5.24 ns
fluorescence lifetime (in ClC(Cl)Cl): 5.86 ns
fluorescence lifetime (in c1ccccc1): 5.11 ns
SMILES: CC(C)(C)C1Nc2ccccc2C(=O)N1Cc1ccccc1 (stereo not given)

fluorescence lifetime (in C1CCCCC1): 14.3 ns
fluorescence lifetime (in CC#N): 19.1 ns
fluorescence lifetime (in CO): 18.3 ns
fluorescence lifetime (in ClCCl): 12.1 ns
SMILES: COc1ccc2c3c(OC)c4ccccc4c(OC)c3n(C)c2c1

fluorescence lifetime (in C1CCOC1): 5.77 ns
fluorescence lifetime (in CCCCCC): 6.26 ns
SMILES: COc1cccc(OC)c1C1=C2C(C)=CC(C)=[N+]2[B-](F)(F)n2c(C)cc(C)c21

fluorescence lifetime (in CC#N): 0.85 ns
fluorescence lifetime (in CO): 0.54 ns
fluorescence lifetime (in O): 1.12 ns
SMILES: CN(C)CCCN1c2ccccc2CCc2ccccc21

fluorescence lifetime (in CCCCCC): 50.6 ns
fluorescence lifetime (in CO): 149 ns
fluorescence lifetime (in ClCCl): 77.8 ns
SMILES: CC(C)c1ccc2ccc3cccc4ccc1c2c34

SMILES: CCC1=C(C)C2=Cc3cc(I)cn3[B-](F)(F)[N+]2=C1C
fluorescence lifetime (in C1CCCCC1): 0.489 ns
fluorescence lifetime (in CC(C)=O): 0.317 ns
fluorescence lifetime (in CCO): 0.349 ns
fluorescence lifetime (in CCOC(C)=O): 0.362 ns
fluorescence lifetime (in CO): 0.324 ns
fluorescence lifetime (in OCC(F)(F)F): 0.308 ns

fluorescence lifetime (in C1CCOC1): 0.5 ns
SMILES: N#Cc1ccc(/C=C/c2ccc(C=C(c3ccccc3)c3ccccc3)cc2)cc1
